# Laboratory results: PMC9033836, “Determination of key residues in MRGPRX2 to enhance pseudo-allergic reactions induced by fluoroquinolones” (Scientific Reports, 2022)
# Where a chain is given by its changes, count along the chain named.
# Columns and labels:
# Test in all cases: intracellular calcium mobilisation (FLIPR Tetra), transiently transfected HEK293
# Type in all cases: cell-based
# dog MRGPRX2 [1] = molecular target: T1, dog MRGPRX2 (Canis lupus, UniProt A0A4Y5P885); details: read-out: EC50 (μg/mL) ± SD (P value) / Dog / Wild type (converted)
# T1 construct: gene in pcDNA3.1(+), transiently transfected HEK293 cells (JCRB)
# T1 sequence (A0A4Y5P885 1-417): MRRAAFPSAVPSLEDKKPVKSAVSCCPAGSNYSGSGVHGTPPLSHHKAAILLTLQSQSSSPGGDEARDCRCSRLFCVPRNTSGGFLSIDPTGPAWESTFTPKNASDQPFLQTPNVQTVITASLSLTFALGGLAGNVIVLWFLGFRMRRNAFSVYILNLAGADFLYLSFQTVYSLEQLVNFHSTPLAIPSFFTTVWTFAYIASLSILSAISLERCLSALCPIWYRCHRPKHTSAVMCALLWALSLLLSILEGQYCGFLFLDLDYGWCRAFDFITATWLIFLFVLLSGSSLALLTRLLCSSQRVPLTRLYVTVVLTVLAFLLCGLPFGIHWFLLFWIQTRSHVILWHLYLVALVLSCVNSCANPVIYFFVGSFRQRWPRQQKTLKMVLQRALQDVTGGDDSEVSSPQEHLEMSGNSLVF
# Description: intracellular calcium mobilisation (FLIPR Tetra), transiently transfected HEK293 on dog MRGPRX2
# human MRGPRX2 [2] = molecular target: T2, human MRGPRX2 (Homo sapiens, UniProt Q96LB1, F78Y/M109W); details: read-out: EC50 (μg/mL) ± SD (P value) / Human / F78Y/M109W (converted)
# T2 construct: full-length gene in pcDNA3.1(+), transiently transfected HEK293 cells (JCRB)
# T2 sequence (Q96LB1 1-330 F78Y/M109W): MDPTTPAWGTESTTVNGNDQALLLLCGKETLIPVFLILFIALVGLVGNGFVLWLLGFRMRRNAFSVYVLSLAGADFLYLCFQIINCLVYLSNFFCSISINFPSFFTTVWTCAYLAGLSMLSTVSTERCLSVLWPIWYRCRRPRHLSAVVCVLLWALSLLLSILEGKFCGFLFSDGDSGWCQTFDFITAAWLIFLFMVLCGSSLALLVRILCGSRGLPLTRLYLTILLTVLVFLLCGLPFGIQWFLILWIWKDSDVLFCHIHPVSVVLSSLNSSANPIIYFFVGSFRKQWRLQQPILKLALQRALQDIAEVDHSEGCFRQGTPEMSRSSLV
# Description: (§1) intracellular calcium mobilisation (FLIPR Tetra), transiently transfected HEK293 on human MRGPRX2
# human MRGPRX2 [3] = molecular target: T3, human MRGPRX2 (Homo sapiens, UniProt Q96LB1, F78Y); details: read-out: EC50 (μg/mL) ± SD (P value) / Human / F78Y (converted)
# T3 construct: full-length gene in pcDNA3.1(+), transiently transfected HEK293 cells (JCRB)
# T3 sequence (Q96LB1 1-330 F78Y): T2 sequence (Q96LB1 1-330 F78Y/M109W) with W109M
# Description: as §1
# human MRGPRX2 [4] = molecular target: T4, human MRGPRX2 (Homo sapiens, UniProt Q96LB1); details: read-out: EC50 (μg/mL) ± SD (P value) / Human / Wild type (converted)
# T4 construct: full-length gene in pcDNA3.1(+), transiently transfected HEK293 cells (JCRB)
# T4 sequence (Q96LB1 1-330): T2 sequence (Q96LB1 1-330 F78Y/M109W) with Y78F, W109M
# Description: as §1
# human MRGPRX2 [5] = molecular target: T5, human MRGPRX2 (Homo sapiens, UniProt Q96LB1, M109W); details: read-out: EC50 (μg/mL) ± SD (P value) / Human / M109W (converted)
# T5 construct: full-length gene in pcDNA3.1(+), transiently transfected HEK293 cells (JCRB)
# T5 sequence (Q96LB1 1-330 M109W): T2 sequence (Q96LB1 1-330 F78Y/M109W) with Y78F
# Description: as §1
# human MRGPRX2 [6] = molecular target: T4, human MRGPRX2; details: highest concentration of fluoroquinolones 1000 µg/mL; HBSS pH 7.4, 20 mM HEPES, 0.05% BSA
# dog MRGPRX2 [7] = molecular target: T1, dog MRGPRX2; details: highest concentration of fluoroquinolones 1000 µg/mL; HBSS pH 7.4, 20 mM HEPES, 0.05% BSA
EC50 (dog MRGPRX2 [1]) [µM],EC50 (human MRGPRX2 [2]) [µM],EC50 (human MRGPRX2 [3]) [µM],EC50 (human MRGPRX2 [4]) [µM],EC50 (human MRGPRX2 [5]) [µM],SMILES,"intracellular calcium mobilisation (FLIPR Tetra), transiently transfected HEK293 (human MRGPRX2 [6])","intracellular calcium mobilisation (FLIPR Tetra), transiently transfected HEK293 (dog MRGPRX2 [7])"
36.2,–,–,–,–,O=C(O)c1cn(C2CC2)c2cc(N3CCNCC3)c(F)cc2c1=O [CPFX],–,–
258,197,666,959,266,COc1c(N2CCNC(C)C2)c(F)cc2c(=O)c(C(=O)O)cn(C3CC3)c12 (stereo not shown) [GFLX],–,–
249,498,1380,1800,581,C[C@H]1COc2c(N3CCN(C)CC3)c(F)cc3c(=O)c(C(=O)O)cn1c23 [LVFX],–,–
–,–,–,–,–,C[C@H]1COc2c(C3(N)CC3)c(F)cc3c(=O)c(C(=O)O)cn1c23 [PZFX],PZFX ... did not induce intracellular calcium mobilisation in any of the cells,PZFX ... did not induce intracellular calcium mobilisation in any of the cells
